Like-named read-outs stand apart in the source and are kept apart here.

Drawing on patent US20160257697A1, “THIOPHENE-SUBSTITUTED TETRACYCLIC COMPOUNDS AND METHODS OFUSE THEREOF FOR THE TREATMENT OF VIRAL DISEASES” (priority 2013, published 2016), this text covers IC50 for 23 compounds.

Test in all cases: microbe, parasite or virus in culture
Assay type in all cases: cell-based, Hepatitis C virus (HCV)

One assay has as its system HCV replicon 1AY93H. To be noted: Replicon Assay A. A digest of the protocol: (§1)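 HCV replicon RNA levels were quantified by TaqMan RT-PCR after 3-day compound exposure (0.5% DMSO, 5% FBS). Cyclophilin RNA, co-amplified in the same reaction, served as endogenous control; Ct values were converted to RNA amounts using linear regression standard curves.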
On the technique in general: Replicon systems follow genome replication, usually without infectious particles.

The test system of the next assay is HCV replicon 1A. Conditions: replicon 1A, Replicon Assay A. Summed up:
as §1

A further assay deals with HCV replicon 2B. Conditions: Replicon Assay A. A digest of the protocol: as §1
Setting [1] is: read-out: 1A Y93H IC50, replicon 1AY93H.

Consider `COC(=O)NC(C(=O)N1CCC[C@H]1c1ncc(-c2ccc3c(c2)cc2n3C(c3ccc(C4CC4)s3)Oc3cc(-c4cnc([C@@H]5CCCN5C(=O)[C@@H](NC(=O)OC)C(C)C)[nH]4)cc(F)c3-2)[nH]1)C1CCOC(C)(C)C1` (single isomer, unassigned) [Compound 222], for which the concentration for half-maximal inhibition (IC50) (usually the concentration at which inhibition is half-maximal) in the assay on HCV replicon 1AY93H (setting [1]) was found to be 0.24 nM; in the assay with HCV replicon 1A, 0.002 nM; in the assay on HCV replicon 2B (read-out: 2B IC50, replicon 2B), 0.17 nM.
For the compound `COC(=O)NC(C(=O)N1CCC[C@H]1c1ncc(-c2ccc3c(c2)cc2n3C(c3ccc(C4CC4)s3)Oc3cc(-c4cnc([C@@H]5CCCN5C(=O)[C@@H](NC(=O)OC)C(C)C)[nH]4)cc(F)c3-2)[nH]1)C1CCOC(C)(C)C1` (single isomer, unassigned) [Compound 223], the half-maximal inhibitory concentration (IC50) in the assay with HCV replicon 1AY93H (setting [1]) was found to be 0.24 nM; in the assay with HCV replicon 1A, 0.0025 nM; with HCV replicon 2B (read-out: 2B IC50, replicon 2B) it was 0.27 nM.
With `COC(=O)NC(C(=O)N1CCC[C@H]1c1ncc(-c2ccc3c(c2)cc2n3C(c3ccc(C4CC4)s3)Oc3cc(-c4cnc([C@@H]5CCCN5C(=O)[C@@H](NC(=O)OC)C(C)C)[nH]4)cc(F)c3-2)[nH]1)C1CN(C(=O)OC)C1` (single isomer, unassigned) [Compound 227], the concentration for half-maximal inhibition (IC50) with HCV replicon 1AY93H (setting [1]) was determined as 0.15 nM; in the assay with HCV replicon 1A, 0.0019 nM; in the assay on HCV replicon 2B (read-out: 2B IC50, replicon 2B), 0.17 nM.
`COC(=O)NC(C(=O)N1CCC[C@H]1c1ncc(-c2ccc3c(c2)cc2n3C(c3ccc(C(C)C)s3)Oc3cc(-c4cnc([C@@H]5CCCN5C(=O)[C@@H](NC(=O)OC)C(C)C)[nH]4)cc(F)c3-2)[nH]1)C1C[C@@H](C)O[C@@H](C)C1` (single isomer, unassigned) [Compound 232]: the concentration for half-maximal inhibition (IC50) in the assay with HCV replicon 1AY93H (setting [1]) stood at 0.2 nM; in the assay with HCV replicon 1A, 0.0027 nM; in the assay on HCV replicon 2B (read-out: 2B IC50, replicon 2B) it was 0.63 nM.
For the compound `COC(=O)NC(C(=O)N1CCC[C@H]1c1ncc(-c2ccc3c(c2)cc2n3C(c3ccc(C(C)C)s3)Oc3cc(-c4cnc([C@@H]5CCCN5C(=O)[C@@H](NC(=O)OC)C(C)C)[nH]4)cc(F)c3-2)[nH]1)C1C[C@@H](C)O[C@@H](C)C1` (single isomer, unassigned) [Compound 235], the IC50 came to 3.87 nM in the assay on HCV replicon 1AY93H (setting [1]); 0.0013 nM with HCV replicon 1A; 10.2 nM with HCV replicon 2B (read-out: 2B IC50, replicon 2B).
As to `COC(=O)NC(C(=O)N1CCC[C@H]1c1ncc(-c2ccc3c(c2)cc2n3C(c3ccc(C(C)C)s3)Oc3cc(-c4cnc([C@@H]5CCCN5C(=O)[C@@H](NC(=O)OC)C(C)C)[nH]4)cc(F)c3-2)[nH]1)C1CCOC(C)(C)C1` (single isomer, unassigned) [Compound 236], the half-maximal inhibitory concentration (IC50) with HCV replicon 1AY93H (setting [1]) stood at 0.18 nM; in the assay on HCV replicon 1A it was 0.0017 nM; with HCV replicon 2B (read-out: 2B IC50, replicon 2B), 0.24 nM.
With `COC(=O)NC(C(=O)N1CCC[C@H]1c1ncc(-c2ccc3c(c2)cc2n3C(c3ccc(C(C)C)s3)Oc3cc(-c4cnc([C@@H]5CCCN5C(=O)[C@@H](NC(=O)OC)C(C)C)[nH]4)cc(F)c3-2)[nH]1)C1CCOC(C)(C)C1` (single isomer, unassigned) [Compound 237], the IC50 turned out to be 0.21 nM in the assay on HCV replicon 1AY93H (setting [1]); 0.0012 nM with HCV replicon 1A; 0.4 nM in the assay with HCV replicon 2B (read-out: 2B IC50, replicon 2B).
On to `COC(=O)NC(C(=O)N1CCC[C@H]1c1ncc(-c2ccc3c(c2)cc2n3C(c3ccc(C(C)C)s3)Oc3cc(-c4cnc([C@@H]5CCCN5C(=O)[C@@H](NC(=O)OC)C(C)C)[nH]4)cc(F)c3-2)[nH]1)C1CCOC(C)(C)C1` (single isomer, unassigned) [Compound 238], for which the half-maximal inhibitory concentration (IC50) was 3.12 nM in the assay on HCV replicon 1AY93H (setting [1]); 0.13 nM in the assay with HCV replicon 1A; 7.05 nM with HCV replicon 2B (read-out: 2B IC50, replicon 2B).
The corresponding values for `COC(=O)NC(C(=O)N1CCC[C@H]1c1ncc(-c2ccc3c(c2)cc2n3C(c3ccc(C(C)C)s3)Oc3cc(-c4cnc([C@@H]5CCCN5C(=O)[C@@H](NC(=O)OC)C(C)C)[nH]4)cc(F)c3-2)[nH]1)C1CCOC(C)(C)C1` (single isomer, unassigned) [Compound 239] are 6.6 nM, 0.0982 nM and 9.48 nM.
In the case of `COC(=O)NC(C(=O)N1CCC[C@H]1c1ncc(-c2ccc3c(c2)cc2n3C(c3ccc(C(C)C)s3)Oc3cc(-c4cnc([C@@H]5CCCN5C(=O)[C@@H](NC(=O)OC)C(C)C)[nH]4)cc(F)c3-2)[nH]1)C1CCOC(C)(C)C1` (single isomer, unassigned) [Compound 242], the concentration for half-maximal inhibition (IC50) with HCV replicon 1AY93H (setting [1]) turned out to be 0.75 nM; in the assay with HCV replicon 1A, 0.0011 nM; in the assay on HCV replicon 2B (read-out: 2B IC50, replicon 2B), 4.42 nM.
Consider `COC(=O)NC(C(=O)N1CCC[C@H]1c1ncc(-c2ccc3c(c2)cc2n3C(c3ccc(C(C)C)s3)Oc3cc(-c4cnc([C@@H]5CCCN5C(=O)[C@@H](NC(=O)OC)C(C)C)[nH]4)cc(F)c3-2)[nH]1)C1CCOC(C)(C)C1` (single isomer, unassigned) [Compound 243], for which the half-maximal inhibitory concentration (IC50) with HCV replicon 1AY93H (setting [1]) is 0.87 nM; with HCV replicon 1A it was 0.0015 nM; in the assay with HCV replicon 2B (read-out: 2B IC50, replicon 2B) it was 6.81 nM.
For `COC(=O)NC(C(=O)N1CCC[C@H]1c1ncc(-c2cc(F)c3c(c2)OC(c2ccc(C(C)C)s2)n2c-3cc3cc(-c4cnc([C@@H]5CCCN5C(=O)[C@@H](NC(=O)OC)C(C)C)[nH]4)ccc32)[nH]1)C1CCOC(C)(C)C1` (single isomer, unassigned) [Compound 246], the concentration for half-maximal inhibition (IC50) in the assay with HCV replicon 1AY93H (Hepatitis C virus, read-out: 1A Y93H IC50 (nM), replicon 1AY93H) was 0.58 nM; with HCV replicon 1A (Hepatitis C virus), 0.0011 nM; in the assay on HCV replicon 2B (Hepatitis C virus, read-out: 2B IC50 (nM), replicon 2B), 0.27 nM.
Regarding `COC(=O)NC(C(=O)N1CCC[C@H]1c1ncc(-c2cc(F)c3c(c2)OC(c2ccc(C4CCC4)s2)n2c-3cc3cc(-c4cnc([C@@H]5CCCN5C(=O)[C@@H](NC(=O)OC)C5CCOCC5)[nH]4)ccc32)[nH]1)C(C)(C)F` (single isomer, unassigned) [Compound 249], the IC50 in the assay with HCV replicon 1AY93H (setting [1]) turned out to be 1.18 nM; in the assay on HCV replicon 1A, 0.0228 nM; in the assay with HCV replicon 2B (read-out: 2B IC50, replicon 2B), 5.04 nM.
As for `CCc1ccc(C2Oc3cc(-c4cnc([C@@H]5CCCN5C(=O)[C@@H](NC(=O)OC)C(C)C)[nH]4)cc(F)c3-c3cc4cc(-c5cnc([C@@H]6C[C@@H](F)CN6C(=O)C(NC(=O)OC)C6CCOC(C)(C)C6)[nH]5)ccc4n32)s1` (single isomer, unassigned) [Compound 254], the IC50 stood at 0.12 nM in the assay on HCV replicon 1AY93H (setting [1]); 0.0011 nM in the assay on HCV replicon 1A; 3.49 nM with HCV replicon 2B (read-out: 2B IC50, replicon 2B).
As for `CCc1ccc(C2Oc3cc(-c4cnc([C@@H]5CCCN5C(=O)[C@@H](NC(=O)OC)C(C)C)[nH]4)cc(F)c3-c3cc4cc(-c5cnc([C@@H]6C[C@@H](F)CN6C(=O)C(NC(=O)OC)C6CCOC(C)(C)C6)[nH]5)ccc4n32)s1` (single isomer, unassigned) [Compound 260], the IC50 in the assay on HCV replicon 1AY93H (setting [1]) turned out to be 0.047 nM; in the assay on HCV replicon 1A, 0.001 nM; in the assay on HCV replicon 2B (read-out: 2B IC50, replicon 2B), 11.7 nM.
As for `CCc1ccc(C2Oc3cc(-c4cnc([C@@H]5CCCN5C(=O)[C@@H](NC(=O)OC)C(C)C)[nH]4)cc(F)c3-c3cc4cc(-c5cnc([C@@H]6C[C@@H](F)CN6C(=O)C(NC(=O)OC)C6CCOC(C)(C)C6)[nH]5)ccc4n32)s1` (single isomer, unassigned) [Compound 261], the IC50 is 0.043 nM with HCV replicon 1AY93H (setting [1]); 0.0015 nM with HCV replicon 1A; 9.84 nM with HCV replicon 2B (read-out: 2B IC50, replicon 2B).
The corresponding values for `COC(=O)NC(C(=O)N1CCC[C@H]1c1ncc(-c2ccc3c(c2)cc2n3C(c3ccc(C4CC4)s3)Oc3cc(-c4cnc([C@@H]5CCCN5C(=O)[C@@H](NC(=O)OC)C(C)C)[nH]4)cc(F)c3-2)[nH]1)C1CN(C(=O)C2CC2)C1` (single isomer, unassigned) [Compound 269] are 0.28 nM, 0.0026 nM and 0.25 nM.
With `COC(=O)NC(C(=O)N1[C@@H]2C[C@@H]2C[C@H]1c1ncc(-c2ccc3c(c2)cc2n3C(c3ccc(C4CC4)s3)Oc3cc(-c4cnc([C@@H]5CCCN5C(=O)[C@@H](NC(=O)OC)C(C)C)[nH]4)cc(F)c3-2)[nH]1)C1CCOC(C)(C)C1` (single isomer, unassigned) [Compound 278], the IC50 with HCV replicon 1AY93H (setting [1]) was 0.161 nM; in the assay on HCV replicon 1A it was 0.0018 nM; in the assay with HCV replicon 2B (read-out: 2B IC50, replicon 2B), 0.3 nM.
As for `CC[C@@H]1CC(C(NC(=O)OC)C(=O)N2CCC[C@H]2c2ncc(-c3ccc4c(c3)cc3n4C(c4ccc(C5CC5)s4)Oc4cc(-c5cnc([C@@H]6CCCN6C(=O)[C@@H](NC(=O)OC)C(C)C)[nH]5)cc(F)c4-3)[nH]2)C[C@H](CC)O1` (single isomer, unassigned) [Compound 287], the half-maximal inhibitory concentration (IC50) in the assay on HCV replicon 1AY93H (setting [1]) is 0.074 nM; in the assay with HCV replicon 1A, 0.0082 nM; with HCV replicon 2B (read-out: 2B IC50, replicon 2B), 0.49 nM.
In the case of `CC[C@@H]1CC(C(NC(=O)OC)C(=O)N2CCC[C@H]2c2ncc(-c3ccc4c(c3)cc3n4C(c4ccc(C5CC5)s4)Oc4cc(-c5cnc([C@@H]6CCCN6C(=O)[C@@H](NC(=O)OC)C(C)C)[nH]5)cc(F)c4-3)[nH]2)C[C@H](CC)O1` (single isomer, unassigned) [Compound 290], the IC50 in the assay on HCV replicon 1AY93H (setting [1]) is 0.19 nM; in the assay on HCV replicon 1A, 0.0011 nM; in the assay on HCV replicon 2B (read-out: 2B IC50, replicon 2B), 0.34 nM.
In the case of `CCc1ccc(C2Oc3cc(-c4cnc([C@@H]5CCCN5C(=O)C(NC(=O)OC)C5CCOC(C)(C)C5)[nH]4)cc(F)c3-c3cc4cc(-c5cnc([C@@H]6CCCN6C(=O)C(NC(=O)OC)C6CCOC(C)(C)C6)[nH]5)ccc4n32)s1` (single isomer, unassigned) [Compound 292], the IC50 was 0.044 nM in the assay on HCV replicon 1AY93H (setting [1]); 0.0027 nM in the assay on HCV replicon 1A; 0.106 nM in the assay on HCV replicon 2B (read-out: 2B IC50, replicon 2B).
The like results for `CCc1ccc(C2Oc3cc(-c4cnc([C@@H]5CCCN5C(=O)C(NC(=O)OC)C5CCOC(C)(C)C5)[nH]4)cc(F)c3-c3cc4cc(-c5cnc([C@@H]6CCCN6C(=O)C(NC(=O)OC)C6CCOC(C)(C)C6)[nH]5)ccc4n32)s1` (single isomer, unassigned) [Compound 297] were, in that order, 8.37 nM, 0.0889 nM and 6.68 nM.
For the compound `CCc1ccc(C2Oc3cc(-c4cnc([C@@H]5CCCN5C(=O)C(NC(=O)OC)C5CCOC(C)(C)C5)[nH]4)cc(F)c3-c3cc4cc(-c5cnc([C@@H]6CCCN6C(=O)C(NC(=O)OC)C6CCOC(C)(C)C6)[nH]5)ccc4n32)s1` (single isomer, unassigned) [Compound 298], the IC50 with HCV replicon 1AY93H (setting [1]) was determined as 1.22 nM; with HCV replicon 1A it was 0.0784 nM; in the assay on HCV replicon 2B (read-out: 2B IC50, replicon 2B), 2.09 nM.
